Target: T1, rCsFBPase (Clonorchis sinensis, UniProt G7YVB4)
T1 construct: gene CLF_111764; GenBank id is printed for the qPCR primers and is a genome scaffold
T1 sequence (G7YVB4 1-346): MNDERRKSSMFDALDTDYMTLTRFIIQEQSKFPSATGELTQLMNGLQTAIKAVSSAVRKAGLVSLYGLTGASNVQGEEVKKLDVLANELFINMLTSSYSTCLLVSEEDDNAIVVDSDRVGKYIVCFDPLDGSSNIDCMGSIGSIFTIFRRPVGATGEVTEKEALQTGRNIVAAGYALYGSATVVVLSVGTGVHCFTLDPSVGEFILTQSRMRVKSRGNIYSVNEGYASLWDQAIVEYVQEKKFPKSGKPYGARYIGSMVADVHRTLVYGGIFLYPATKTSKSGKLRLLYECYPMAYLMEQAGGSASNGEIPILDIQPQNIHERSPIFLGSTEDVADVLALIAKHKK
Assay: coupled G6PDH / phosphoglucose isomerase assay, NADP+ reduction at […] nm
Type: biochemical

| Structure (SMILES) | IC50 [µM] |
| --- | --- |
| Nc1ncnc2c1ncn2[C@@H]1O[C@H](COP(=O)(O)O)[C@@H](O)[C@H]1O [AMP] | 262 |
| CC(C)Cc1sc(N)nc1-c1ccc(P(=O)(O)O)o1 [MB05032, [5-[2-amino-5-(2-methylpropyl)-4-thiazolyl]-2-furanyl] phosphonic acid] | 4.9 |
